Counter-ions that a name gives are not always drawn.
Experiments:
Type in all cases: cell-based
[1] = target: adenosine 2a receptor (Homo sapiens, UniProt P29274); assay: Agonist activity against adenosine 2a receptor (CHO cells, cAMP/SPAP reporter); settings: CHO cells transfected with human receptor, basal cAMP via SPAP, mean of all the versions tested
Procedure: (§1) (1) Agonist activity against adenosine 2a, adenosine 1 and adenosine 3 receptor subtypes.
(§2) The effect of test compounds was determined by their effects on basal levels of cAMP (A2a) or on forskolin-enhanced cAMP (A1 and A3) as reflected by changes in levels of SPAP.

[2] = target: T1, adenosine 1 receptor (Homo sapiens, UniProt P30542); assay: Agonist activity against adenosine 1 receptor (CHO cells, forskolin-enhanced cAMP/SPAP reporter); settings: CHO cells transfected with human receptor, forskolin-enhanced cAMP via SPAP, mean of all the versions tested
T1 sequence (P30542 1-326): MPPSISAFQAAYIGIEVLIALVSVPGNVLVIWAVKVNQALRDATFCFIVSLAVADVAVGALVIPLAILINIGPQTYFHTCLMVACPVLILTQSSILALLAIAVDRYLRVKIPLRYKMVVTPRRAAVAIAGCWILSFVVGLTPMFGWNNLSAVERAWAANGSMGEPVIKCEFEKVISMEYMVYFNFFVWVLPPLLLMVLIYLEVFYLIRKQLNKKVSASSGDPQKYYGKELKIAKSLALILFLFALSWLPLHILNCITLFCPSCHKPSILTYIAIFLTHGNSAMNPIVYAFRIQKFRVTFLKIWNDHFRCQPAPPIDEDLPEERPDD
Procedure: as §1, §2

[3] = target: T2, adenosine 3 receptor (Homo sapiens, UniProt P0DMS8); assay: Agonist activity against adenosine 3 receptor (CHO cells, forskolin-enhanced cAMP/SPAP reporter); settings: CHO cells transfected with human receptor, forskolin-enhanced cAMP via SPAP, mean of all the versions tested
T2 sequence (P0DMS8 1-318): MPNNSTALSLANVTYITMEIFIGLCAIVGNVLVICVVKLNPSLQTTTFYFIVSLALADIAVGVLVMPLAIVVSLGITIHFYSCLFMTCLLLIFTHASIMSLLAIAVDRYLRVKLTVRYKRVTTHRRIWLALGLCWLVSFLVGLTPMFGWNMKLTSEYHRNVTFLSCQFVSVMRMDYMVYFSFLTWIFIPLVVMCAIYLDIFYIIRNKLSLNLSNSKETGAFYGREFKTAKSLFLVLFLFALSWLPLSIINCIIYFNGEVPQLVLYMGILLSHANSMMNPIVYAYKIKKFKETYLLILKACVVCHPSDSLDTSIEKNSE
Procedure: as §1, §2

Chain of adenosine 2a receptor (P29274 whole entry): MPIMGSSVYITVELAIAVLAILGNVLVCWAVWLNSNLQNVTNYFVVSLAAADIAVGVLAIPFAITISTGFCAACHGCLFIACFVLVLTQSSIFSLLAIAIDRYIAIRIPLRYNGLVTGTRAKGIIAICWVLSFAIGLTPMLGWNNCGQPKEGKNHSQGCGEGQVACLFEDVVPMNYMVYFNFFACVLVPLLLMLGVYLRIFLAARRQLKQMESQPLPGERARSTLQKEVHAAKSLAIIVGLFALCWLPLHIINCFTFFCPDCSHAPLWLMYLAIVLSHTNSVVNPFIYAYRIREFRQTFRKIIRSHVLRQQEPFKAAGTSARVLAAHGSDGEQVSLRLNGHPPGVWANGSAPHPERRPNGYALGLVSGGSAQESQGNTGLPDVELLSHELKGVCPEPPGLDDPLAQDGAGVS

Row | A2a EC50 as a ratio of that of NECA [1] | A1 EC50 as a ratio of that of NECA [2] | A3 EC50 as a ratio of that of NECA [3] | A2a EC50 as a ratio of that of NECA ([1]; Dihydrochloride) | A1 EC50 as a ratio of that of NECA ([2]; Dihydrochloride) | A3 EC50 as a ratio of that of NECA ([3]; Dihydrochloride) | Compound
1 | 2.96 | 73.85 | >326 | – | – | – | CCC(CC)Nc1nc(NC2CCC(N)CC2)nc2c1ncn2C1OC(c2nnn(C(C)C)n2)C(O)C1O.O=CO.O=CO [Example 67, (2R,3R,4S,5R)-2-[2-(trans-4-Amino-cyclohexylamino)-6-(1-ethyl-propylamino)-purin-9-yl]-5-(2-isopropyl-2H-tetrazol-5-yl)-tetrahydro-furan-3,4-diol bis(Formate)]
2 | 4.04 | 113.40 | >235 | – | – | – | CCn1nnc(C2OC(n3cnc4c(NC5CCCC5)nc(NCCN5CCCCC5)nc43)C(O)C2O)n1.O=CO.O=CO [Example 104, (2R,3R,4S,5R)-2-[6-Cyclopentylamino-2-(2-piperidin-1-yl-ethylamino)-purin-9-yl]-5-(2-ethyl-2H-tetrazol-5-yl)-tetrahydro-furan-3,4-diol bis(Formate)]
3 | – | – | – | 0.69 | 237.9 | >442 | CCn1nnc(C2OC(n3cnc4c(NCC(c5ccccc5)c5ccccc5)nc(NC5CCNC5)nc43)C(O)C2O)n1 [Example 21, (2R,3R,4S,5R)-2-[6-(2,2-Diphenyl-ethylamino)-2-(pyrrolidin-3R-ylamino)-purin-9-yl]-5-(2-ethyl-2H-tetrazol-5-yl)-tetrahydro-furan-3,4-diol Dihydrochloride]
4 | 0.76 | 700.4 | >181 | – | – | – | CCn1nnc([C@H]2O[C@@H](n3cnc4c(NCc5ccccc5)nc(NCCc5cn(C)cn5)nc43)[C@H](O)[C@@H]2O)n1 [Example 5, (2R,3R,4S,5R)-2-{6-Benzylamino-2-[2-(1-methyl-1H-imidazol-4-yl)-ethylamino]-purin-9-yl}-5-(2-ethyl-2H-tetrazol-5-yl)-tetrahydro-furan-3,4-diol]
5 | 0.11 | 22.1 | 3.66 | – | – | – | CCn1nnc(C2OC(n3cnc4c(N)nc(NC5CCCC5O)nc43)C(O)C2O)n1 [Example 10, (2R,3R,4S,5R)-2-[6-Amino-2-(2R-hydroxy-cyclopent-1R-ylamino)-purin-9-yl]-5-(2-ethyl-2H-tetrazol-5-yl)-tetrahydro-furan-3,4-diol Hydrochloride]
6 | 0.31 | 22.1 | >232 | – | – | – | CC(C)n1nnc(C2OC(n3cnc4c(NC(CO)Cc5ccccc5)nc(NCCc5cn(C)cn5)nc43)C(O)C2O)n1 [Example 40, (2R,3R,4S,5R)-2-{6-(1S-Hydroxymethyl-2-phenyl-ethylamino)-2-[2-(1-methyl-1H-imidazol-4-yl)-ethylamino]-purin-9-yl}-5-(2-isopropyl-2H-tetrazol-5-yl)-tetrahydro-furan-3,4-diol Formate]
7 | 4.82 | 130.10 | >362 | – | – | – | CCn1nnc([C@H]2O[C@@H](n3cnc4c(NCC(c5ccccc5)c5ccccc5)nc(NCCN)nc43)[C@H](O)[C@@H]2O)n1 [Example 83, (2R,3R,4S,5R)-2-[2-(2-Amino-ethylamino)-6-(2,2-diphenyl-ethylamino)-purin-9-yl]-5-(2-ethyl-2H-tetrazol-5-yl)-tetrahydro-furan-3,4-diol]
8 | 2.41 | 245.90 | >267 | – | – | – | CCC(CC)Nc1nc(NCCN2CCCC2)nc2c1ncn2C1OC(c2nnn(C)n2)C(O)C1O.O=CO.O=CO [Example 90, (2R,3R,4S,5R)-2-[6-(1-Ethyl-propylamino)-2-(2-pyrrolidin-1-yl-ethylamino)-purin-9-yl]-5-(2-methyl-2H-tetrazol-5-yl)-tetrahydro-furan-3,4-diol Diformate]
9 | 0.56 | 211.8 | >388 | – | – | – | Cn1nnc(C2OC(n3cnc4c(NC5CCCC5)nc(NCCN5CCCCC5)nc43)C(O)C2O)n1.O=CO.O=CO [Example 25, (2R,3R,4S,5R)-2-[6-Cyclopentylamino-2-(2-piperidin-1-yl-ethylamino)-purin-9-yl]-5-(2-methyl-2H-tetrazol-5-yl)-tetrahydro-furan-3,4-diol Diformate]

Further lines, the compound ahead of its results:

Row | Compound | A2a EC50 as a ratio of that of NECA [1] | A1 EC50 as a ratio of that of NECA [2] | A3 EC50 as a ratio of that of NECA [3] | A2a EC50 as a ratio of that of NECA ([1]; Dihydrochloride) | A1 EC50 as a ratio of that of NECA ([2]; Dihydrochloride) | A3 EC50 as a ratio of that of NECA ([3]; Dihydrochloride)
10 | CCn1nnc([C@H]2O[C@@H](n3cnc4c(NCC(c5ccccc5)c5ccccc5)nc(NC5CCOCC5)nc43)[C@H](O)[C@@H]2O)n1.O=C(O)C(F)(F)F [Example 113, (2R, 3R,4S, 5R)-2-[6-(2,2-Diphenyl-ethylamino)-2-(tetrahydro-pyran-4-ylamino)-purin-9-yl]-5-(2-ethyl-2H-tetrazol-5-yl)-tetrahydro-furan-3,4-diol Trifluoroacetate] | 0.72 | 184.4 | >297.0 | – | – | –
11 | CCn1nnc([C@H]2O[C@@H](n3cnc4c(N)nc(Nc5ccc(F)cc5)nc43)[C@H](O)[C@@H]2O)n1.O=C(O)C(F)(F)F [Example 13, (2R,3R,4S,5R)-2-[6-Amino-2-(4-fluoro-phenylamino)-purin-9-yl]-5-(2-ethyl-2H-tetrazol-5-yl)-tetrahydro-furan-3,4-diol Trifluoroacetate] | 0.64 | 266.9 | >232 | – | – | –
12 | CCn1nnc([C@H]2O[C@@H](n3cnc4c(N)nc(NCCc5ccc(OC)c(OC)c5)nc43)[C@H](O)[C@@H]2O)n1.O=C(O)C(F)(F)F [Example 20, (2R,3R,4S,5R)-2-{6-Amino-2-[2-(3,4-dimethoxy-phenyl)-ethylamino]-purin-9-yl}-5-(2-ethyl-2H-tetrazol-5-yl)-tetrahydro-furan-3,4-diol Trifluoroacetate] | 0.14 | 253 | >183 | – | – | –
13 | (2R,3R,4S,5R)-2-[2-(trans-4-Amino-cyclohexylamino)-6-cyclopentylamino-purin-9-yl]-5-(2-methyl-2H-tetrazol-5-yl)-tetrahydro-furan-3,4-diol Diformate [Example 92] | 1.24 | 253.70 | >192 | – | – | –
14 | CCn1nnc([C@H]2O[C@@H](n3cnc4c(N)nc(NC5CC6CCC5C6)nc43)[C@H](O)[C@@H]2O)n1.O=C(O)C(F)(F)F (stereo partly drawn) [Example 19, (2R,3R,4S,5R)-2-[6-Amino-2-(bicyclo[2.2.1]hept-2-ylamino)-purin-9-yl]-5-(2-ethyl-2H-tetrazol-5-yl)-tetrahydro-furan-3,4-diol Trifluoroacetate] | 0.21 | 85.6 | >382 | – | – | –
15 | COc1ccc(CCNc2nc(N)c3ncn([C@@H]4O[C@H](c5nnn(C)n5)[C@@H](O)[C@H]4O)c3n2)cc1OC.O=CO [Example 38, (2R,3R,4S,5R)-2-{6-Amino-2-[2-(3,4-dimethoxy-phenyl)-ethylamino]-purin-9-yl}-5-(2-methyl-2H-tetrazol-5-yl)-tetrahydro-furan-3,4-diol Formate] | 0.13 | 946 | >315 | – | – | –

From patent publication US6528494B2 (priority 1996, dated 2003)
